Measurements as given in patent publication US20080221021A1, “Novel Corticotropin-Releasing Factor Receptor 1 (Crfr1) Agonist” (Max-Planck-Gesellschaft Zur Forderung Der, priority 2004, published 2008).
“Also recorded” adds a separate entry of the source. Where no end group is shown, it is not given here.

Tests used:
rCRFR1 = biological target: T1, rCRFR1 (Rattus norvegicus, UniProt P35353); assay: Competition binding scintillation proximity assay, rCRFR1 membranes
T1 construct: expressed in transfected cells
T1 sequence (P35353 24-415): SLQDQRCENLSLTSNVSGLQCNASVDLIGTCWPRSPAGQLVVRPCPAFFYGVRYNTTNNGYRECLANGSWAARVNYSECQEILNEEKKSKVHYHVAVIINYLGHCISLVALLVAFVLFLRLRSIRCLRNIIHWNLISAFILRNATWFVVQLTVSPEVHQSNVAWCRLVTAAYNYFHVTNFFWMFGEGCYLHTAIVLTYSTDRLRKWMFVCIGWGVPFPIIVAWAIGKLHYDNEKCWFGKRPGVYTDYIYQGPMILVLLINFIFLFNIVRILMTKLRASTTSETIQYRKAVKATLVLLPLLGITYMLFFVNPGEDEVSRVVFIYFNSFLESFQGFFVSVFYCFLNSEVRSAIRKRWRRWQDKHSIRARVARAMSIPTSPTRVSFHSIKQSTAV
Procedure: (§1) Crude membrane fractions were prepared from human embryonic kidney (HEK) 293 cells stably expressing either cloned rat CRFR1α(rCRFR1) or mouse CRFR2β (mCRFR2β) as described (20). Rat CRFBP (rCRFBP) was produced in HEK 293 cells stably transfected with cDNA coding for rCRFBP C-terminally fused with a His6 sequence as described (36). The scintillation proximity assays (SPA) for binding analysis of CRFR and CRFBP have been already described in detail (21, 22). For competition binding assays of rCRFR1 and rCRFBP, [^125I-Tyr^0]h/rCRF was used as radiolabeled peptide, whereas [^125I-Tyr^0]Svg was employed for mCRFR2β.

mCRFR2β = biological target: T2, mCRFR2β (Mus musculus, UniProt Q60748); assay: Competition binding scintillation proximity assay, mCRFR2β membranes
T2 construct: expressed in transfected cells
T2 sequence (Q60748 1-431 isoform Q60748-2): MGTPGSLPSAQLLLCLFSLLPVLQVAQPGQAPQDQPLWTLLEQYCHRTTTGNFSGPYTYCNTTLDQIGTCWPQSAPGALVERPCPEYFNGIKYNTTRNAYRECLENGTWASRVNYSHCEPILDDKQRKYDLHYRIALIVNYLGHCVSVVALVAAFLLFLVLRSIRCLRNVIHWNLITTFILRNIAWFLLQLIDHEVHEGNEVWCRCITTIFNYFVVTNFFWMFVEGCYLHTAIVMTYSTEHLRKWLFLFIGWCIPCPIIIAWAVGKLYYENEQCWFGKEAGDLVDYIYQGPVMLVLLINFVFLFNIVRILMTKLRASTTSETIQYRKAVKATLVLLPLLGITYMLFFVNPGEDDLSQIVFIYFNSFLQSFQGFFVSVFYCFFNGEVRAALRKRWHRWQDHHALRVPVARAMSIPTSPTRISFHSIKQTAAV
Procedure: as §1

C57BL/6J mice [1] = assay: Forced swim test, i.c.v. injection; format: in vivo, mouse
Procedure: (§2) Nine-week old male C57BL/6J (Centre D'Elevage Janvier, Sultzfeld, France) were individually housed in macrolon cages according to the recommendations of the Society for Laboratory Animal Science (Germany). All experiments were carried out in accordance with the European Council Directive (86/609/EEC) with the permission of the Animal Protection Law enforced by the District Government of Braunschweig, State of Lower Saxony, Germany, which is in full agreement with the APA ethical guidelines. All efforts were made to minimize animal suffering. The number of mice per group was 9-11.
(§3) All peptides were dissolved in aCSF except for the CRFR2-selective antagonist antisauvagine-30 (aSvg-30) (20) that was initially dissolved in 10 mM aqueous acetic acid and diluted with the same volume of two-fold concentrated aCSF. The final pH of the peptide solutions was 7.4. The exact peptide concentration of the injection solutions was determined by amino acid analysis with a Beckman HPLC analyzer system 6300. Total hydrolysis of the peptides was carried out in the presence of 1 nmol norvaline as internal standard with 6 M HCl for 24 h at 100° C.
For the forced swim test (FST), C57BL/6J mice cannulated in the lateral ventricles were subjected to swim sessions in individual glass cylinders (height 39 cm, diameter 21.7 cm) containing water, 15-cm deep, at 23-25° C. On day 1, all animals were placed in the cylinder for a preswim session of 15 min. On the test day 24 h later (day 2), the mice were subjected to a testswim session for 6 min. The water was changed between subjects. All testswim sessions were recorded by a video camera positioned directly above the cylinder. A component observer blind to treatment scored the videotapes. The behavioral measure scored was the duration of immobility, defined as time spent still or only using righting movements to keep the head over water. An increase in immobility time was interpreted as an increase of depression-like behavior. In all behavioral experiments, the cannula placement was confirmed for each mouse by histological examination of the brains after methylene blue injection (23). The behavioral data are expressed as mean±SEM, and were analysed using a two- and one-way ANOVA, with Bonferri/Dunn test applied, post hoc, for individual between-group comparisons at the p<0.05 level of significance.

C57BL/6J mice [2] = assay: Elevated plus-maze test, i.c.v. injection; format: in vivo, mouse; conditions: for anxiety-like behavior (time spent in open arms, number of open arm entries) / locomotor activity (total distance crossed): 30 min before EPM, vs aCSF
Procedure: as §2, §3
The elevated plus-maze (EPM) behavior of C57BL/6J mice cannulated in the lateral ventricles or lateral intermediate septal area (23) was investigated 30 min after injection of the CRFR1 agonist under investigation for 5 min in the EPM test (24). The CRFR2-selective antagonist aSvg-30 in aCSF or aCSF alone were injected 15 min before agonist administration. The behavior of the mice was recorded by a video camera connected to a PC and analyzed by the Technical & Scientific Equipment software VIDEOMOT 2. The time spent, distance crossed, and number of entries in the open arms, closed arms, and center were recorded. The cannular placement was confirmed for each mouse by histological examination of the brains after methylene blue injection (23). The behavioral data are expressed as mean±SEM, and were analyzed using a two- and one-way ANOVA, with Bonferroni/Dunn test applied, post hoc, for individual between-group comparisons at the p<0.05 level of significance. Shift of preference from the open to the closed arms was interpreted as an increase of anxiety-like behavior. Locomotor activity was determined with this test by the distance travelled.

rCRFBP = biological target: T3, rCRFBP (Rattus norvegicus, UniProt P24388); assay: Competition binding scintillation proximity assay, rCRFBP; conditions: binding analysis, in words
T3 construct: His6 (C); made in house; host or cells: HEK 293 cells, stably transfected
T3 sequence (P24388 25-322): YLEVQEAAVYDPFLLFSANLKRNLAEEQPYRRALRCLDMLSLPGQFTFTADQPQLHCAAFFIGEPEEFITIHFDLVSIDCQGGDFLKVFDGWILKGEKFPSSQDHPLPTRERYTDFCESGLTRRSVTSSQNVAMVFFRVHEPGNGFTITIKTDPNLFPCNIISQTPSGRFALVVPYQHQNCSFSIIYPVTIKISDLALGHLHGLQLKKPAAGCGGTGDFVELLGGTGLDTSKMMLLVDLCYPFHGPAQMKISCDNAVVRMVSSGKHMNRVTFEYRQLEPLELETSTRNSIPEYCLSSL
Procedure: as §1

[3] = i.c.v., two-way ANOVA over doses, EPM

For “[Glu^21, Ala^40] [Svg^1-12]x[h/rCRF^14-30]x[Svg^30-40] (XGPPISIDLSLELLREVLEMERAEQLAQQAANNRLLLDTA; X not resolved here; ends and bridges not checked; also: Glx at position 1 not given here (Gln/Glu/pGlu)) [cortagine]”, the “selectivity for CRFR1” value (rCRFR1; binding analysis, CRFR1 vs CRFR2, in words) was “high selectivity for rCRFR1 over mCRFR2β”, the “change in affinity to CRFR1 in comparison to parent peptide” value (rCRFR1; compound 8 vs compound 6, compound 9 vs compound 8, Nle20 analog vs compound 9) was “no significant change” and the “CRFR1-selectivity over CRFR2β, IC50(mCRFR2)/IC50(rCRFR1)” value (rCRFR1; ratio of binding affinities) was 208. The “affinity for CRFR2” value (mCRFR2β; binding analysis, in words) was “negligible”, the “change in affinity for CRFR2 in comparison to parent peptide” value (mCRFR2β; compound 8 vs compound 6, compound 9 vs compound 8) was “no significant change” and the “immobility time during the testswim session 24 h later (day 2)” value (C57BL/6J mice [1]; 300 ng i.c.v. 30 min before preswim (day 1)) was “significantly reduced immobility time in comparison to oCRF-injected mice; also recorded: decrease of the immobility lime; also recorded: significant decrease”. For the same substance, the “immobility time during the preswim session” value (C57BL/6J mice [1]; 300 ng i.c.v. 30 min before preswim (day 1), vs aCSF) was “significantly decreased the immobility time”, the “immobility time during the testswim session” value (C57BL/6J mice [1]; 300 ng i.c.v. 30 min before testswim (day 2), vs aCSF) was “significantly decreased the immobility time” and the “floating time in the FST” value (C57BL/6J mice [1]; mice) was “reduced significantly”. For the same substance, the “anxiety-like behavior (time spent in open arms, number of open arm entries)” value (“anxiety-like behavior” for short) (C57BL/6J mice [2]; 10 ng i.c.v.) was “ineffective”, the “locomotor activity (total distance crossed)” value (C57BL/6J mice [2]; 10 ng i.c.v.) was “ineffective” and the “anxiety-like behavior” value (C57BL/6J mice [2]; 30 ng i.c.v.) was “significantly decreased time spent in open arms; also recorded: increased significantly anxiety-like behavior; also recorded: increased anxiety levels”. The “locomotor activity (total distance crossed)” value (C57BL/6J mice [2]; 30 ng i.c.v.) was “decreased significantly; also recorded: reduced locomotor activity”, the “anxiety-like behavior” value (C57BL/6J mice [2]; 100 ng i.c.v.) was “increased significantly anxiety-like behavior; also recorded: increased anxiety levels” and the “locomotor activity (total distance crossed)” value (C57BL/6J mice [2]; 100 ng i.c.v.) was “decreased significantly; also recorded: reduced locomotor activity”. The “anxiety-like behavior” value (C57BL/6J mice [2]; 300 ng i.c.v.) was “increased significantly anxiety-like behavior; also recorded: increased anxiety levels”, the “locomotor activity (total distance crossed)” value (C57BL/6J mice [2]; 300 ng i.c.v.) was “decreased significantly; also recorded: reduced locomotor activity” and the “ability to modulate locomotor activity, cortagine vs oCRF” value (C57BL/6J mice [2]; [3]) was “did not differ”. The “anxiogenic potency compared to oCRF” value (C57BL/6J mice [2]; [3]) was “significantly higher anxiogenic potency; also recorded: doses lower than required of OCRF”, the “affinity to CRFBP” value (rCRFBP) was “negligible; also recorded: does not display any detectable affinity” and the “affinity to CRFBP” value (rCRFBP; listed as compound 9) was “completely abolished”.
